Test results: article PMC12042115 (mLife, 2025)
“And” between values parts separate entries of the source, which are not always exact repeats. Equal entries are not always repeated. Where two headings read alike, the source gives them in different places.

Test system: wild‐type BCG cells
Format: cell-based, M. bovis BCG
Settings: for Mean Ratio (GDI5755_2d vs DMSO_2d): 2d; for Ratio: single ratios, GDI5755_3d vs DMSO_3d

Structure (SMILES): O=C(Oc1ccc(Cl)cc1)c1ccc(N2CCOCC2)c([N+](=O)[O-])c1 [GDI‐5755]
- Mean Ratio (GDI5755_2d vs DMSO_2d) (protein BCG_3079c A0A0H3M8N0 NADPH-dependent FMN reductase-like domain-containing protein，FMN reductase, up-regulated): 1.67
- Mean Ratio (GDI5755_2d vs DMSO_2d) (protein BCG_3185c A0A0H3M8B9 Possible dioxygenase, up-regulated): 2.02
- Mean Ratio (GDI5755_2d vs DMSO_2d) (protein BCG_3281c A0A0H3MAS0 Probable transmembrane alkane 1-monooxygenase alkB, up-regulated): 1.48
- Mean Ratio (GDI5755_2d vs DMSO_2d) (protein BCG_3298 A0A0H3MAT3 DUF1490 family protein, up-regulated): 1.92
- Mean Ratio (GDI5755_2d vs DMSO_2d) (protein BCG_3319c A0A0H3MAV3 L-lysine 6-transaminase, up-regulated): 1.48
- Mean Ratio (GDI5755_2d vs DMSO_2d) (protein BCG_3476 A0A0H3MB64 Probable dioxygenase, up-regulated): 1.55
- Mean Ratio (GDI5755_2d vs DMSO_2d) (protein BCG_3588 A0A0H3M9C1 Probable conserved membrane protein, up-regulated): 1.81
- Mean Ratio (GDI5755_2d vs DMSO_2d) (protein BCG_3590 A0A0H3MBE7 Rieske-type oxygenase, up-regulated): 1.45
- Mean Ratio (GDI5755_2d vs DMSO_2d) (protein BCG_3591 A0A0H3MID2 Uncharacterized protein,BCG_3591, up-regulated): 1.62
- Mean Ratio (GDI5755_2d vs DMSO_2d) (protein BCG_3826c A1KQ98 Putative S-adenosyl-L-methionine-dependent methyltransferase BCG_3826c, up-regulated): 1.54
- Mean Ratio (GDI5755_2d vs DMSO_2d) (protein BCG_3917c A0A0H3MJE2 Monooxygenase ethA, up-regulated): 1.44
- Mean_Ratio_GDI5755_2d-VS-WT_2d_control (s002 sheet P value, unrounded): 3.462 and 2.763 and 2.713 and 2.648 and 2.17
- Mean_Ratio_GDI5755_2d-VS-WT_2d_control (s002 sheet annot_file, c8 (rounded)): 1.08 and 0.90 and 1.06 and 0.93 and 0.81
- Mean_Ratio_GDI5755_2d-VS-WT_2d_control (s002 sheet annot_file, c9 (unrounded)): 1.083 and 0.8951 and 1.059 and 0.9258 and 0.8124
- Mean_Ratio_GDI5755_3d-VS-WT_3d_control (s003 sheet P value): 3.94 and 2.77 and 2.53 and 2.26 and 2.25
- Mean_Ratio_GDI5755_3d-VS-WT_3d_control (s003 sheet annot_file): 1.18 and 1.02 and 1.00
- Ratio (protein A0A0G2Q9F3, BCG_0030c (Rv3924c), Large ribosomal subunit protein bL34): 0.8126 and 0.7464 and 0.864 and 0.7929
- Ratio (protein A0A0H3M7L0, BCG_2659c (Rv2632c), DUF1876 domain-containing protein): 0.6783 and 0.84 and 0.8345 and 0.8579
- Ratio (protein A0A0H3M8R4, BCG_3395 (Rv1267c), Possible transcriptional regulatory protein embR2): 0.7934 and 0.8013 and 0.8041 and 0.8107
- Ratio (protein A0A0H3M499, BCG_1243 (Rv1180/Rv1181), Probable polyketide beta-ketoacyl synthase pks3): 0.7824 and 0.8155 and 0.7985 and 0.8135
- Ratio (protein A0A0H3M677, BCG_1564 (Rv1500), Probable glycosyltransferase): 0.8075 and 0.8276 and 0.7828 and 0.8014
- Ratio (protein A0A0H3MA33, BCG_1381c (Rv1320c), Possible adenylate cyclase): 0.785 and 0.7965 and 0.7852 and 0.8412
- Ratio (protein A0A0H3MBI4, BCG_2001A (Rv1962A), Antitoxin VapB35): 0.8087 and 0.8452 and 0.7652 and 0.7971
- Ratio (protein A0A0H3MBL1, BCG_3682c (Rv3624c), Hypoxanthine phosphoribosyltransferase): 0.7684 and 0.8491 and 0.778 and 0.8193
- Ratio (protein A0A0H3MDB0, BCG_2775c (Rv2759c), Ribonuclease VapC): 0.8535 and 0.7284 and 0.8794 and 0.7453
- Ratio (protein A1KPC8, BCG_3507c (Rv3441c), Phosphoglucosamine mutase): 0.7677 and 0.7655 and 0.8493 and 0.8355
- proteome downregulated (third day, 2×MIC): 49.6%
- Mean_Ratio (GDI5755_3d vs DMSO_3d), protein BCG_0130 (up-regulated, A0A0H3M0N8, Mtb Rv0097, Possible oxidoreductase): 1.5
- Mean_Ratio (GDI5755_3d vs DMSO_3d), protein BCG_0176 (up-regulated, A0A0H3M1F5, Mtb MRA_0147, DUF427 domain-containing protein): 1.5
- Mean_Ratio (GDI5755_3d vs DMSO_3d), protein BCG_0623c (up-regulated, A0A0H3M1W6, Mtb Rv0578c, PE-PGRS family protein): 1.8
- Mean_Ratio (GDI5755_3d vs DMSO_3d), protein BCG_0353 (up-regulated, A0A0H3M1Y1, Mtb Rv0313, Transmembrane protein): 1.6
- Mean_Ratio (GDI5755_3d vs DMSO_3d), protein BCG_0227 (up-regulated, A0A0H3M2R5, Mtb Rv0190, Copper-sensing transcriptional repressor RicR): 1.4
- Mean_Ratio (GDI5755_3d vs DMSO_3d), protein BCG_0726c (up-regulated, A0A0H3M2T8, Mtb Rv0677c, Possible conserved membrane protein mmpS5): 1.4
- Mean_Ratio (GDI5755_3d vs DMSO_3d), protein BCG_1249 (up-regulated, A0A0H3M3D0, Mtb Rv1187, L-glutamate gamma-semialdehyde dehydrogenase): 1.6
- Mean_Ratio (GDI5755_3d vs DMSO_3d), protein BCG_1334 (up-regulated, A0A0H3M3I9, Mtb Rv1275, Lipoprotein lprC): 1.3
- Mean_Ratio (GDI5755_3d vs DMSO_3d), protein A0A0H3M3L0Rv1303 (up-regulated, A0A0H3M3L0, Conserved hypothetical transmembrane protein): 1.4
- Mean_Ratio (GDI5755_3d vs DMSO_3d), protein BCG_0507 (up-regulated, A0A0H3M3L9, Mtb Rv0467, isocitrate lyase): 1.5
- Mean_Ratio (GDI5755_3d vs DMSO_3d), protein BCG_1404c (up-regulated, A0A0H3M3N1, Mtb Rv1342c, Conserved membrane protein): 1.5
- Mean_Ratio (GDI5755_3d vs DMSO_3d), protein BCG_1053 (up-regulated, A0A0H3M3P8, Mtb MRA_1004, Uncharacterized protein): 1.5
- Mean_Ratio (GDI5755_3d vs DMSO_3d), protein BCG_1472c (up-regulated, A0A0H3M3S8, Mtb Rv1411c, Lipoarabinomannan carrier protein LprG): 1.4
- Mean_Ratio (GDI5755_3d vs DMSO_3d), protein BCG_0578c (up-regulated, A0A0H3M3U8, Mtb Rv0534c, 1,4-dihydroxy-2-naphthoate octaprenyltransferase, menA): 1.9
- Mean_Ratio (GDI5755_3d vs DMSO_3d), protein BCG_1661c (up-regulated, A0A0H3M4E4, Mtb Rv1623c, integral membrane cytochrome D ubiquinol oxidase (Subunit I) cydA): 1.6
- Mean_Ratio (GDI5755_3d vs DMSO_3d), protein BCG_1022 (up-regulated, A0A0H3M4W6, Mtb Rv0968, DUF1490 family protein): 1.5
- Mean_Ratio (GDI5755_3d vs DMSO_3d), protein BCG_1787 (up-regulated, A0A0H3M5K5, Mtb Rv1748, DUF4129 domain-containing protein): 1.4
- Mean_Ratio (GDI5755_3d vs DMSO_3d), protein BCG_1584c (up-regulated, A0A0H3M6A1, Mtb Rv1532c, Thioesterase domain-containing protein): 1.3
- Mean_Ratio (GDI5755_3d vs DMSO_3d), protein BCG_1795c (up-regulated, A0A0H3M6T8, Mtb MRA_1768B, Uncharacterized protein): 1.4
- Mean_Ratio (GDI5755_3d vs DMSO_3d), protein BCG_1998c (up-regulated, A0A0H3M7D9, Mtb Rv1959c, Toxin ParE1): 1.4
- Mean_Ratio (GDI5755_3d vs DMSO_3d), protein BCG_2583 (up-regulated, A0A0H3M7F6, Mtb Rv2560, proline and glycine rich transmembrane protein): 1.7
- Mean_Ratio (GDI5755_3d vs DMSO_3d), protein BCG_0282c (up-regulated, A0A0H3M7K8, Mtb Rv0244c, acyl-CoA dehydrogenase fadE5): 1.6
- Mean_Ratio (GDI5755_3d vs DMSO_3d), protein BCG_0287c (up-regulated, A0A0H3M7L3, Mtb Rv0249c, Succinate dehydrogenase [membrane anchor subunit]): 1.4
- Mean_Ratio (GDI5755_3d vs DMSO_3d), protein BCG_2072c (up-regulated, A0A0H3M7M3, Mtb Rv2053c, transmembrane protein): 1.6
- Mean_Ratio (GDI5755_3d vs DMSO_3d), protein BCG_2723 (up-regulated, A0A0H3M7S6, Mtb Rv2710, RNA polymerase sigma factor, sigB): 1.3
- Mean_Ratio (GDI5755_3d vs DMSO_3d), protein BCG_0422c (up-regulated, A0A0H3M7W9, Mtb Rv0384c, Chaperone protein ClpB): 1.5
- Mean_Ratio (GDI5755_3d vs DMSO_3d), protein BCG_3185c (up-regulated, A0A0H3M8B9, Mtb Rv3161c, Dioxygenase): 2.2
- Mean_Ratio (GDI5755_3d vs DMSO_3d), protein BCG_3195c (up-regulated, A0A0H3M8D0, Mtb Rv3171c, Possible non-heme haloperoxidase hpx): 1.4
- Mean_Ratio (GDI5755_3d vs DMSO_3d), protein BCG_0728c (up-regulated, A0A0H3M8M0, Mtb Rv0679c, Conserved hypothetical threonine rich protein): 1.4
- Mean_Ratio (GDI5755_3d vs DMSO_3d), protein BCG_3079c (up-regulated, A0A0H3M8N0, Mtb Rv3054c, NADPH-dependent FMN reductase-like domain-containing protein): 2.0
- Mean_Ratio (GDI5755_3d vs DMSO_3d), protein BCG_3084 (up-regulated, A0A0H3M8N5, Mtb Rv3059, Probable cytochrome P450 136 cyp136): 1.3
- Mean_Ratio (GDI5755_3d vs DMSO_3d), protein BCG_3153c (up-regulated, A0A0H3M8U1, Mtb Rv3130c, Diacylglycerol O-acyltransferase): 1.4
- Mean_Ratio (GDI5755_3d vs DMSO_3d), protein BCG_2517c (up-regulated, A0A0H3M8U9, Mtb Rv2497c, Probable pyruvate dehydrogenase E1 component (Alpha subunit) pdhA): 1.4
- Mean_Ratio (GDI5755_3d vs DMSO_3d), protein BCG_3184c (up-regulated, A0A0H3M8V5, Mtb Rv3160c, Possible transcriptional regulatory protein (Probably tetR-family)): 1.4
- Mean_Ratio (GDI5755_3d vs DMSO_3d), protein BCG_3588 (up-regulated, A0A0H3M9C1, Mtb Rv3524, Serine/threonine-protein kinase PknD(NU-6027 target)): 1.8
- Mean_Ratio (GDI5755_3d vs DMSO_3d), protein BCG_2721c (up-regulated, A0A0H3M9C3, Mtb Rv2708c, DUF3039 domain-containing protein): 1.4
- Mean_Ratio (GDI5755_3d vs DMSO_3d), protein BCG_1115 (up-regulated, A0A0H3M9F1, Mtb Rv1057, YVTN family beta-propeller repeat protein): 1.5
- Mean_Ratio (GDI5755_3d vs DMSO_3d), protein BCG_1130 (up-regulated, A0A0H3M9G5, conserved transmembrane protein): 1.5
- Mean_Ratio (GDI5755_3d vs DMSO_3d), protein BCG_2810c (up-regulated, A0A0H3M9L8, Mtb Rv2792c, Possible resolvase): 1.5
